We go through 2 substances from patent US9943844B2, “Microfluidic evaluation system for evaluating the efficacy of an antiperspirant product and associated method” (L'OREAL, priority 2013, dated 2018).

Like-named read-outs stand apart in the source and are kept apart here.

The conditions of assay [1]: cited from earlier work.
Assay [2] in a line: Microfluidic evaluation of antiperspirant efficacy: clog formation at the confluence of secondary (sweat) channel and main channel, seen by phase contrast microscopy. The source says:
The invention also has for object a method for evaluating the efficacy of an antiperspirant product comprising the following steps: • supplying an evaluation system 1 such as described hereinabove; • injecting natural and/or artificial sweat into the or each secondary channel 9 of the microfluidic chip 5 from the sweat source 3; • injecting at least one antiperspirant product into the main channel 7; • determining at least one physical-chemical parameter that represents the efficacy of the antiperspirant agent considered; and • evaluating the efficacy of the antiperspirant product using the determined physical-chemical parameter.
The step of filling is followed by a step of distributing, during which the antiperspirant product flowing in the main channel 7 and the sweat flowing in the secondary channel or channels 9 react together, in particular on the zones of confluence between the sweat flowing in the secondary channel or channels 9 and the antiperspirant product flowing in the main channel 7. According to the efficacy of the antiperspirant product, during this step of distributing, the interaction between the sweat and the antiperspirant product leads to the formation of clogs at the outlet 25 of the secondary channel or channels 9.
These values can in particular be Boolean values. For example, the physical-chemical parameter measured is the formation or not of a clog, and it is concluded that the antiperspirant product tested is effective if the formation of a clog is observed during the method. If no formation of a clog is observed, non-efficacy is concluded for the antiperspirant product.
These tests were conducted with the microfluidic chip 4 described hereinabove, and by using as imaging tool 45 a phase contrast microscope.
The injection of the sweat and of the antiperspirant product was carried out according to the sequence described in the table 1.
It is considered that the antiperspirant product is not effective when no clog is formed in the secondary channel 9. In this case, the sweat of the secondary channel 9 can freely flow in the main channel 7.

With Aluminum Zirconium Glycine [AZG], the “antiperspirant efficacy in vivo” value in assay [1] (in vivo) is reported as “effective”. Besides, the Evaluation result in assay [2] was “Effective”.

With aluminum chlorohydrate [ACH], in assay [1] (known to be (not) effective antiperspirant agent in vivo), the “antiperspirant efficacy in vivo” value is reported as “effective”. For the same substance, the Evaluation result is “Effective” in assay [2] (concentration 5%, injection sequence of table 1, effective = formation of a clog in secondary channel preventing sweat flow, not effective = no clog formed) and “Effective” in assay [2] (concentration 15%, injection sequence of table 1, effective = formation of a clog in secondary channel preventing sweat flow, not effective = no clog formed).
